Among the data in patent US9828393B2, “Silylalkyloxyaryl compounds and methods for treating cancer” (THE REGENTS OF THE UNIVERSITY OF COLORADO, a body corporate, priority 2013, dated 2017) are GI50 values, retold here.

Where two headings read alike, the source gives them in different places.

Test [1] concerns Non-Small Cell Lung Cancer cell lines. Briefly: NCI-60 cell line screen, Non-Small Cell Lung Cancer panel average. The test is classed as cell-based, human. As to conditions: read-out: GI50 Average. As to the method: (§1) Drug sensitivity data are provided as GI50s (concentrations required to inhibit growth by 50%). The first row of the text file identifies cell lines, separated by tabs. Subsequent rows contain compound number, compound name, and GI50 for each cell line, each separated by a tab. […] For a typical screening experiment, cells are inoculated into 96 well microtiter plates in 100 μL at plating densities ranging from 5,000 to 40,000 cells/well depending on the doubling time of individual cell lines. After cell inoculation, the microtiter plates are incubated at 37° C., 5% CO2, 95% air and 100% relative humidity for 24 h prior to addition of experimental drugs. After 24 h, two plates of each cell line are fixed in situ with TCA, to represent a measurement of the cell population for each cell line at the time of drug addition (Tz). Experimental drugs are solubilized in dimethyl sulfoxide at 400-fold the desired final maximum test concentration and stored frozen prior to use. At the time of drug addition, an aliquot of frozen concentrate is thawed and diluted to twice the desired final maximum test concentration with complete medium containing 50 μg/ml gentamicin. Additional four, 10-fold or one-half log serial dilutions are made to provide a total of five drug concentrations plus control. Aliquots of 100 μl of these different drug dilutions are added to the appropriate microtiter wells already containing 100 μl of medium, resulting in the required final drug concentrations. Following drug addition, the plates are incubated for an additional 48 h at 37° C., 5% CO2, 95% air, and 100% relative humidity. For adherent cells, the assay is terminated by the addition of cold TCA. Cells are fixed in situ by the gentle addition of 50 μl of cold 50% (w/v) TCA (final concentration, 10% TCA) and incubated for 60 minutes at 4° C. The supernatant is discarded, and the plates are washed five times with tap water and air dried. Sulforhodamine B (SRB) solution (100 μl) at 0.4% (w/v) in 1% acetic acid is added to each well, and plates are incubated for 10 minutes at room temperature. After staining, unbound dye is removed by washing five times with 1% acetic acid and the plates are air dried. Bound stain is subsequently solubilized with 10 mM trizma base, and the absorbance is read on an automated plate reader at a wavelength of 515 nm. For suspension cells, the methodology is the same except that the assay is terminated by fixing settled cells at the bottom of the wells by gently adding 50 μl of 80% TCA (final concentration, 16% TCA). Using the seven absorbance measurements [time zero, (Tz), control growth, (C), and test growth in the presence of drug at the five concentration levels (Ti)], the percentage growth is calculated at each of the drug concentrations levels. […]

The next test deals with SK-MEL-2. Briefly: NCI-60 cell line screen (SRB), SK-MEL-2. In kind it is cell-based, human. As to the method:
as §1

Another test deals with RXF 393. Description: NCI-60 cell line screen (SRB), RXF 393. In kind it is cell-based, human. The procedure:
as §1

In a further test the test system is 786-0. Briefly: NCI-60 cell line screen (SRB), 786-0. The test is classed as cell-based, human. As to the method:
as §1

In another test the test system is RPMI-8226. Briefly: NCI-60 cell line screen (SRB), RPMI-8226. In kind it is cell-based, human. The procedure: as §1
The subject of another test is HCC-2998. Description: NCI-60 cell line screen (SRB), HCC-2998. The test is classed as cell-based, human. As to the method: as §1
The test system of another test is HCT-116. Description: NCI-60 cell line screen (SRB), HCT-116. In kind it is cell-based, human. The procedure: as §1
The next test concerns A-498. Description: NCI-60 cell line screen (SRB), A-498. The test is classed as cell-based, human. The procedure:
as §1

For the next test, the system named is OVCAR-3. Briefly: NCI-60 cell line screen (SRB), OVCAR-3. In kind it is cell-based, human. The procedure: as §1
The test system of the next test is Melanoma cell lines. Briefly: NCI-60 cell line screen, Melanoma panel average. The test is classed as cell-based, human. Particulars: read-out: GI50 Average. The procedure: as §1
The next test concerns SK-MEL-5. Description: NCI-60 cell line screen (SRB), SK-MEL-5. In kind it is cell-based, human. As to the method: as §1
For another test, the system named is Renal Cancer cell lines. Description: NCI-60 cell line screen, Renal Cancer panel average. In kind it is cell-based, human. As to conditions: read-out: GI50 Average. The procedure: as §1
The subject of a further test is NCI-H226. Description: NCI-60 cell line screen (SRB), NCI-H226. The test is classed as cell-based, human. As to the method:
as §1

The subject of the next test is OVCAR-4. Briefly: NCI-60 cell line screen (SRB), OVCAR-4. In kind it is cell-based, human. As to the method: as §1
Another test deals with PC-3. Briefly: NCI-60 cell line screen (SRB), PC-3. The test is classed as cell-based, human. The procedure:
as §1

Another test concerns SNB-75. Description: NCI-60 cell line screen (SRB), SNB-75. The test is classed as cell-based. Particulars: Homo sapiens, SNB-75, 48 h. As to the method:
as §1, with “temperature.” for “temperature. After staining, unbound dye is removed by washing five times with 1% acetic acid and the plates are air dried. Bound stain is subsequently solubilized with 10 mM trizma base, and the absorbance is read on an automated plate reader at a wavelength of 515 nm. For suspension cells, the methodology is the same except that the assay is terminated by fixing settled cells at the bottom of the wells by gently adding 50 μl of 80% TCA (final concentration, 16% TCA). Using the seven absorbance measurements [time zero, (Tz), control growth, (C), and test growth in the presence of drug at the five concentration levels (Ti)], the percentage growth is calculated at each of the drug concentrations levels.”

Another test has as its system MDA-MB-468. Description: NCI-60 cell line screen (SRB), MDA-MB-468. The test is classed as cell-based, human. As to the method: as §1
The next test has as its system SK-MEL-28. Description: NCI-60 cell line screen (SRB), SK-MEL-28. The test is classed as cell-based, human. As to the method: as §1
A further test relates to Leukemia cell lines. Briefly: NCI-60 cell line screen, Leukemia panel average. In kind it is cell-based, human. As to conditions: read-out: GI50 Average. The procedure: as §1
Another test relates to HS 578T. Description: NCI-60 cell line screen (SRB), HS 578T. The test is classed as cell-based, human. As to the method:
as §1

A further test deals with CCRF-CEM. Briefly: NCI-60 cell line screen (SRB), CCRF-CEM. The test is classed as cell-based, human. The procedure:
as §1

For another test, the system named is MOLT-4. Description: NCI-60 cell line screen (SRB), MOLT-4. The test is classed as cell-based, human. The procedure:
as §1

The next test has as its system SF-539. Briefly: NCI-60 cell line screen (SRB), SF-539. The test is classed as cell-based, human. As to the method: as §1
For the next test, the system named is T-47D. Briefly: NCI-60 cell line screen (SRB), T-47D. In kind it is cell-based, human. The procedure:
as §1

What is called GI50 is the concentration giving 50% growth inhibition. For the compound `CC1(C)CC(NC(=O)[C@H](Cc2ccc(OCc3c(Cl)cccc3Cl)cc2)NC(=O)c2ccc(OCCC[Si](C)(C)C)cc2)CC(C)(C)N1` [GH1501, N^α-{4-[3-(trimethylsilyl)propoxy]-benzoyl}-N-(2,2,6,6-tetramethylpiperidin-4-yl)-[O-(2,6-dichlorobenzyl)-L-tyrosinamide]], the GI50 in test [1] (Homo sapiens) worked out at 1.33 µM; with SK-MEL-2 (Homo sapiens, SK-MEL-2, 48 h), 1.77 µM; with RXF 393 (Homo sapiens, RXF 393, 48 h), 1.51 µM; in the test on 786-0 (Homo sapiens, 786-0, 48 h), 0.369 µM; in the test on RPMI-8226 (Homo sapiens, RPMI-8226, 48 h), 1.32 µM; with HCC-2998 (Homo sapiens, HCC 2998, 48 h), 1.05 µM. Further, the GI50 was 0.206 µM in the test on HCT-116 (Homo sapiens, HCT-116, 48 h); 1.75 µM in the test with A-498 (Homo sapiens, A498, 48 h); 1.25 µM in the test on OVCAR-3 (Homo sapiens, OVCAR-3, 48 h); 1.18 µM in the test with Melanoma cell lines (Homo sapiens); 1.72 µM in the test on SK-MEL-5 (Homo sapiens, SK-MEL-5, 48 h); 1.28 µM in the test on Renal Cancer cell lines (Homo sapiens). Also, the GI50 in the test with NCI-H226 (Homo sapiens, NCI-H226, 48 h) worked out at 1.77 µM; in the test with OVCAR-4 (Homo sapiens, OVCAR-4, 48 h), 1.62 µM; with PC-3 (Homo sapiens, PC-3, 48 h), 1.32 µM; with SNB-75, 1.34 µM; in the test on MDA-MB-468 (Homo sapiens, MDA-MB-468, 48 h), 1.7 µM; in the test on SK-MEL-28 (Homo sapiens, SK-MEL-28, 48 h), 1.5 µM. Further, the 50% growth inhibitory concentration (GI50) was determined as 0.802 µM in the test on Leukemia cell lines (Homo sapiens); 1.92 µM with HS 578T (Homo sapiens, Hs-578T, 48 h); 1.2 µM in the test with CCRF-CEM (Homo sapiens, 48 h); 0.353 µM in the test with MOLT-4 (Homo sapiens, MOLT-4, 48 h); 1.77 µM in the test on SF-539 (Homo sapiens, SF-539, 48 h); 1.9 µM with T-47D (Homo sapiens, T47D, 48 h).

For the compound `CCOP(=O)(OCC)C(NC(=O)[C@H](Cc1ccc(-c2ccccc2)cc1)NC(=O)c1ccc(OCCC[Si](C)(C)C)cc1)P(=O)(OCC)OCC` [GH1505, N^α-{4-[3-(trimethylsilyl)propoxy]-benzoyl}-N-[bis(dietoxyphosphoryl)methyl]-(4-phenyl-L-phenylalaninamide)], the concentration for 50% growth inhibition (GI50) was determined as 2.62 µM in test [1] (average over Non-Small Cell Lung Cancer panel); 2.11 µM with SK-MEL-2 (Melanoma, SK-MEL-2, 48 h drug incubation, read-out: GI50); 1.87 µM in the test on RXF 393 (Renal Cancer, RXF 393, 48 h drug incubation, read-out: GI50); 2.76 µM in the test with 786-0 (Renal Cancer, 786-0, 48 h drug incubation, read-out: GI50); 1.97 µM in the test with RPMI-8226 (Leukemia, RPMI-8226, 48 h drug incubation, read-out: GI50); 2.02 µM in the test on HCC-2998 (Colon Cancer, HCC-2998, 48 h drug incubation, read-out: GI50). Moreover, the GI50 with HCT-116 (Colon Cancer, HCT-116, 48 h drug incubation, read-out: GI50) stood at 1.93 µM; in the test on A-498 (Renal Cancer, A-498, 48 h drug incubation, read-out: GI50), 3.64 µM; in the test on OVCAR-3 (Ovarian Cancer, OVCAR-3, 48 h drug incubation, read-out: GI50), 1.87 µM; in the test with Melanoma cell lines (average over Melanoma panel) it was 1.92 µM; in the test on SK-MEL-5 (Melanoma, SK-MEL-5, 48 h drug incubation, read-out: GI50), 1.58 µM; with Renal Cancer cell lines (average over Renal Cancer panel) it was 2.55 µM. Further, the concentration for 50% growth inhibition (GI50) with NCI-H226 (Non-Small Cell Lung Cancer, NCI-H226, 48 h drug incubation, read-out: GI50) amounted to 1.84 µM; in the test on OVCAR-4 (Ovarian Cancer, OVCAR-4, 48 h drug incubation, read-out: GI50), 2.54 µM; with PC-3 (Prostate Cancer, PC-3, 48 h drug incubation, read-out: GI50) it was 2.1 µM; in the test on MDA-MB-468 (Breast Cancer, MDA-MB-468, 48 h drug incubation, read-out: GI50), 1.72 µM; in the test with SK-MEL-28 (Melanoma, SK-MEL-28, 48 h drug incubation, read-out: GI50), 1.76 µM; with Leukemia cell lines (average over Leukemia panel), 2.8 µM. Further, the GI50 in the test with HS 578T (Breast Cancer, HS 578T, 48 h drug incubation, read-out: GI50) came out at 2.61 µM; in the test on CCRF-CEM (Leukemia, 48 h drug incubation, read-out: GI50), 2.78 µM; in the test with MOLT-4 (Leukemia, MOLT-4, 48 h drug incubation, read-out: GI50), 2.86 µM; in the test on SF-539 (CNS Cancer, SF-539, 48 h drug incubation, read-out: GI50), 1.82 µM; with T-47D (Breast Cancer, T-47D, 48 h drug incubation, read-out: GI50), 3.1 µM.
